One data set relates to HepG2 cells. Put plainly: Hepatotoxicity in HepG2 cell line (MTT). As to conditions: 24 h.
A further data set relates to Nrf2. Put plainly: Nrf2-dependent luciferase reporter assay in AREc32 cell line. Format: cell-based. As to conditions: for EC50: AREc32 cells, read-out: CD (concentration required to double the luciferase reporter activity). Here is the method:
Thereafter, we tested the ability of the compounds to induce the Nrf2 transcription factor. We used an Nrf2-dependent luciferase reporter assay in the AREc32 cell line[45]. Cells were cultured for 24 h and then treated with increasing concentrations of compounds 5a–t (0.3, 3, 10 and 30 μM), including the known inducer sulforaphane, containing an isothiocyanate motive as positive control.
AREc32 cells were plated in 96-well white plates (2 × 10^4 cells/well). After 24 h, cells were incubated with increasing concentrations of each compound in duplicate for 24 h. AREc32 cells express constitutively the plasmid pGL-8xARE that implements 8 copies of the EpRE sequences followed by luciferase reporter gen. Therefore, Nrf2 induction is related to the activation of EpRE sequences, expressing luciferase at the same extent as EpRE sequences are activated. The Luciferase Assay System (Promega E1500), was used according to provider protocol and luminescence was quantified in an Orion II microplate luminometer (Berthold, Germany). Fold induction of luciferase activity was normalized to basal conditions. Data are expressed as CD values, expressing the concentration required to double the luciferase activity. CD values are calculated from dose-response curves generated from fold induction of control conditions vs. inducer concentration and fitted by non-linear regression and data interpolated to 2-fold induction concentration.
Breast cancer cells stably transfected to express luciferase after EpRE sequences MCF-7/AREc32 named AREc32, were kindly provided by Dr. C. Roland Wolf (University of Dundee, UK).^14 AREc32 cells were maintained in DMEM with high glucose-glutamax, supplemented with 10 % FBS, 1 % penicillin-streptomycin (10,000 units), and geneticin (0.8 mg/ml G418) at 37 °C and in a 5 % CO2- air atmosphere.^14
AREc32 cells are constitutively transfected with the pGL-8xARE luciferase reporter gene, inserted after EpRE sequences. Thus, Nrf2 translocation to the nucleus induces the activation of the EpRE sequences, expressing their target phase II antioxidant genes, and expressing luciferase at the same extent.^15 AREc32 cells were plated in 96-well white plates (2X10^4 cells/well). After 24 h, cells were incubated with increasing concentrations of each compound in duplicate for 24 h (dissolved in DMSO to give a final 0.1 % vol/vol concentration of vehicle). Each plate included non-treated cells as basal luciferase expression and tBHQ (10 µM) as positive control. TBHQ is a potent Nrf2 inducer used as control in the development of the AREc32 cells.^14 Transfected clones are selected using G418. AREc32 cells express constitutively the plasmid pGL-8xARE that implements 8 copies of the EpRE sequences followed by a luciferase reporter gene. Therefore, the induction of Nrf2 is proportional to the activation of EpRE sequences, expressing luciferase at the same extent as EpRE sequences are activated. Luciferase production is then assessed by a bioluminescence assay. The Luciferase Assay System (Promega E1500), was used according to the Promega protocol and luminescence was quantified in an Orion II microplate luminometer (Berthold, Germany). Relative Light Units (RLU) were recorded for the contents of each well. Fold induction of luciferase activity was calculated by dividing the RLU obtained for the tests wells for each treatment by the average RLU obtained for the basal conditions. Data are expressed as CD values, expressing the concentration required to double the basal luciferase activity, used to quantify the Nrf2 induction potency. CD values are calculated from dose-response curves generated from fold induction of control conditions vs. inducer concentration and fitted by non-linear regression and data interpolated to value the 2-fold induction concentration, using GraphPad Prism software (San Diego, CA, USA).

The subject of another data set is primary rat glial cells. Put plainly: ROS production in LPS-stimulated primary glial cultures (H2DCFDA). The class given is cell-based. As to conditions: Glial cell, 24 h pre-incubation, 18 h co-incubation with LPS, 3 h with fluorescent dye, read-out: IC50 ROS reduction.
Description: Therefore, we envisaged the study of compounds 5a–t as potential anti-inflammatory agents. We used primary rat glial cells treated with lipopolysaccharide (LPS) to induce the production of nitrites and ROS as a model of glial activation. Nitrite production is directly proportional to the expression of the iNOS, that is over-expressed when LPS activates glial cells. ROS production is proportional to NOX activation after stimulation with LPS. Results are summarized in Table 2 as IC50s of nitrite production reduction and ROS production reduction. We have included sulforaphane as control in all experiments (see the Supporting Information).
Besides the increase in nitrite production, it is well known that LPS stimulation of microglia also induces the activation of NOX, which induces superoxide free radical production. In fact, this mechanism is synergistic with the expression of iNOS and the production of nitrites. In this respect, there is a body of evidence showing that NOX activation is a major contributor to ROS oxidative stress and neuronal death in AD[57][58]. […] In general, potency to reduce ROS production increased from ortho to para and meta as observed above.
(§1) Primary glial cells were cultured in bottom transparent 96-well black plates following standard protocol. Cells were pre-incubated with the corresponding compound at the selected concentrations, for 24 hours, and therafter, co-incubated with the corresponding compound and LPS (1 μM) during 18 h more. Then, treatments were removed and cells were loaded with the fluorescent probe 2′,7′-dichlorodihydrofluorescein diacetate (H2DCFDA) (10 μM) for 45 minutes in serum free glial culture medium. All experiments included cells treated with culture medium alone (basal). Cells were washed twice with culture medium and fluorescence intensity was recorded in a Fluostar Optima multiwall pate reader (BMG Labtech, Offenburg, Germany) at 485/520 nm as excitation and emission wavelengths respectively, each hour, during 3 hours period. Data were normalized with respect to basal conditions that were considered as 100%.
as §1, with “µM)” for “μM)”, “2',7'-dichlorodihydrofluorescein” for “2′,7′-dichlorodihydrofluorescein”
Mixed glial cultures were obtained from cerebral cortex of 2-5 day-old Sprague-Dawley rats. After removal of blood vessels and meninges, the forebrains were dissociated in DMEM/F12 medium. After mechanical dissociation, cells were plated (3x10^5 cells/ml) in DMEM/F12 medium with 20% fetal bovine serum (FBS) and 1 % penicillin/streptomycin (10,000 units), at 37 °C and in a 5 % CO2-supplemented air atmosphere. After 5 days, medium was substituted by DMEM/F12 medium with 10 % FBS. Cells were cultured for 7-10 days before treatment.

The values that follow come from article PMC5374710, “Discovery of the first dual GSK3β inhibitor/Nrf2 inducer. A new multitarget therapeutic strategy for Alzheimer’s disease” (Scientific Reports, 2017).

Like-named read-outs stand apart in the source and are kept apart here. Bounds are passed on as bounds.

Description for HepG2 cells: Thus, it is relevant to study the potential neurotoxicity and hepatotoxicity of the novel dual GSK3β inhibitors-Nrf2 inducers 5a–t.
Viability was measured as MTT reduction in presence of increasing concentrations of derivatives. Values are expressed as LD50 calculated from dose-response curves of four different concentrations.
HepG2 cells were cultured according to supplier indications in EMEM supplemented with 10 % heat-inactivated FBS, 100 µg/mL streptomycin and 100 units/mL penicillin. Cells were maintained at 37 °C in humidified atmosphere of 95 % air and 5 % CO2. For experimental procedures, cells were cultured in 96-well plates at density of 1x10^5 cells/well. Treatments were performed in 1% FBS medium unless other concentration was specified. Cells were used from 4 up to 13 passages.
Cells were cultured in 48-well (SH-SY5Y, 1x10^5 cells per well) or 96-well plates (HepG2, 1x10^5 cells per well) for 24 h. […] Control cells were incubated with the same concentration of DMSO (0.1 % final concentration) without any drug.

As to `Cc1[nH]nc2c1C(c1cccnc1)C(C#N)=C(N)O2` (centres unmarked) [Compound 5s, 6-Amino-3-methyl-4-(pyridin-3-yl)-2,4-dihydropyrano[2,3-c]pyrazole-5-carbonitrile], the “HepG2 LD50” value in the data set on HepG2 cells was > 100 µM. For the same molecule, the EC50 with Nrf2 (Arec32, 24 h) was 8.91 ± 2.2 µM. Further, in the data set on primary rat glial cells, the IC50 amounted to 15.2 ± 3.73 µM.

As for `Cc1n[nH]c2c1C(c1ccccc1Cl)C(C#N)=C(N)O2` (centres unmarked) [Compound 5i, 6-Amino-4-(2-chlorophenyl)-3-methyl-2,4-dihydropyrano[2,3-c]pyrazole-5-carbonitrile], the “HepG2 LD50” value in the data set on HepG2 cells was > 100 µM. The EC50 with Nrf2 (Arec32, 24 h) worked out at 23.5 ± 3.2 µM. Also, the IC50 in the data set with primary rat glial cells is > 60 µM.

Consider `Cc1n[nH]c2c1C(c1ccco1)C(C#N)=C(N)O2` (centres unmarked) [Compound 5q, 6-Amino-4-(furan-2-yl)-3-methyl-2,4-dihydropyrano[2,3-c]pyrazole-5-carbonitrile], for which, in the data set with HepG2 cells, the “HepG2 LD50” value is given as > 100 µM. Besides, in the data set with Nrf2 (Arec32, 24 h), the EC50 was 25.2 ± 2.4 µM. The IC50 with primary rat glial cells turned out to be 22.5 ± 7.78 µM.

For `Cc1n[nH]c2c1C(c1ccc(F)cc1)C(C#N)=C(N)O2` (centres unmarked) [Compound 5h, 6-Amino-4-(4-fluorophenyl)-3-methyl-2,4-dihydropyrano[2,3-c]pyrazole-5-carbonitrile], in the data set with HepG2 cells, the “HepG2 LD50” value was > 100 µM. Further, the EC50 in the data set with Nrf2 (Arec32, 24 h) was 14.6 ± 4 µM. Moreover, the IC50 in the data set on primary rat glial cells was found to be 37 ± 4.32 µM.

For the molecule `COc1ccccc1C1C(C#N)=C(N)Oc2n[nH]c(C)c21` (centres unmarked) [Compound 5b, 6-Amino-4-(2-methoxyphenyl)-3-methyl-2,4-dihydropyrano[2,3-c]pyrazole-5-carbonitrile], in the data set on HepG2 cells, the “HepG2 LD50” value is given as > 100 µM. Moreover, the EC50 in the data set with Nrf2 (Arec32, 24 h) is > 30 µM. In addition, the IC50 in the data set on primary rat glial cells was > 60 µM.

Consider `Cc1[nH]nc2c1C(c1ccc(Br)cc1)C(C#N)=C(N)O2` (centres unmarked) [Compound 5m, 6-Amino-4-(4-bromophenyl)-3-methyl-2,4-dihydropyrano[2,3-c]pyrazole-5-carbonitrile], for which the “HepG2 LD50” value with HepG2 cells is > 100 µM. Also, the “Luciferase activity increase alone versus in presence of Li (10 mM)” value with Nrf2 (3 μM to 30 μM, 24 h) was “to the same extent and without statistically significant differences”. Besides, the EC50 in the data set on Nrf2 (24 h) is 9.37 ± 1.4 µM; in the data set with Nrf2 (Arec32, 24 h), < 10 µM. For the same molecule, the IC50 in the data set on primary rat glial cells came out at 33.2 ± 7.36 µM.

Consider `Cc1ccc(C2C(C#N)=C(N)Oc3[nH]nc(C)c32)cc1` (centres unmarked) [Compound 5g, 6-Amino-3-methyl-4-(4-methylphenyl)-2,4-dihydropyrano[2,3-c]pyrazole-5-carbonitrile], for which the “HepG2 LD50” value in the data set with HepG2 cells was > 100 µM. In addition, in the data set on Nrf2 (Arec32, 24 h), the EC50 was 25.4 ± 2.5 µM. In addition, in the data set with primary rat glial cells, the IC50 worked out at 45.1 ± 5.33 µM.

For the molecule `Cc1[nH]nc2c1C(c1ccccc1)C(C#N)=C(N)O2` (centres unmarked) [Compound 5a, 6-Amino-3-methyl-4-phenyl-2,4-dihydropyrano[2,3-c]pyrazole-5-carbonitrile], in the data set with HepG2 cells, the “HepG2 LD50” value is > 100 µM. Moreover, in the data set with Nrf2 (Arec32, 24 h), the EC50 is 20.5 ± 3.4 µM. The IC50 in the data set on primary rat glial cells is > 60 µM.

`Cc1cccc(C2C(C#N)=C(N)Oc3n[nH]c(C)c32)c1` (centres unmarked) [Compound 5f, 6-Amino-3-methyl-4-(3-methylphenyl)-2,4-dihydropyrano[2,3-c]pyrazole-5-carbonitrile]: the “HepG2 LD50” value in the data set with HepG2 cells was > 100 µM. The EC50 with Nrf2 (Arec32, 24 h) was determined as 14.1 ± 2.1 µM. Besides, in the data set with primary rat glial cells, the IC50 turned out to be 32.6 ± 6.79 µM.

Take `Cc1[nH]nc2c1C(c1ccc([N+](=O)[O-])cc1)C(C#N)=C(N)O2` (centres unmarked) [Compound 5p, 6-Amino-3-methyl-4-(4-nitrophenyl)-2,4-dihydropyrano[2,3-c]pyrazole-5-carbonitrile]: the “HepG2 LD50” value with HepG2 cells is listed as > 100 µM. In addition, the EC50 with Nrf2 (Arec32, 24 h) was found to be 15 ± 4.3 µM. The IC50 in the data set on primary rat glial cells was > 60 µM.

`Cc1[nH]nc2c1C(c1ccccc1[N+](=O)[O-])C(C#N)=C(N)O2` (centres unmarked) [Compound 5n, 6-Amino-3-methyl-4-(2-nitrophenyl)-2,4-dihydropyrano[2,3-c]pyrazole-5-carbonitrile]: the “HepG2 LD50” value in the data set with HepG2 cells is listed as > 100 µM. The EC50 in the data set with Nrf2 (Arec32, 24 h) is 11.3 ± 5.5 µM. Besides, in the data set on primary rat glial cells, the IC50 stood at 19.9 ± 4.89 µM.

Regarding `Cc1ccccc1C1C(C#N)=C(N)Oc2[nH]nc(C)c21` (centres unmarked) [Compound 5e, 6-Amino-3-methyl-4-(2-methylphenyl)-2,4-dihydropyrano[2,3-c]pyrazole-5-carbonitrile], in the data set on HepG2 cells, the “HepG2 LD50” value is listed as > 100 µM. Also, the EC50 in the data set with Nrf2 (Arec32, 24 h) was > 30 µM. Besides, the IC50 in the data set on primary rat glial cells was 60 ± 0.29 µM.

Take `COc1cccc(C2C(C#N)=C(N)Oc3n[nH]c(C)c32)c1` (centres unmarked) [Compound 5c, 6-Amino-4-(3-methoxyphenyl)-3-methyl-2,4-dihydropyrano[2,3-c]pyrazole-5-carbonitrile]: the “HepG2 LD50” value in the data set on HepG2 cells is > 100 µM. The EC50 in the data set with Nrf2 (Arec32, 24 h) stood at 11.3 ± 1.3 µM. Also, the IC50 in the data set on primary rat glial cells stood at 18.1 ± 5.36 µM.

On to `Cc1n[nH]c2c1C(c1ccc(Cl)cc1)C(C#N)=C(N)O2` (centres unmarked) [Compound 5k, 6-Amino-4-(4-chlorophenyl)-3-methyl-2,4-dihydropyrano[2,3-c]pyrazole-5-carbonitrile], for which the “HepG2 LD50” value with HepG2 cells is recorded as > 100 µM. Also, the EC50 in the data set on Nrf2 (Arec32, 24 h) came to 8.31 ± 1.5 µM. The IC50 in the data set with primary rat glial cells is > 60 µM.

Regarding `Cc1[nH]nc2c1C(c1cccc(Cl)c1)C(C#N)=C(N)O2` (centres unmarked) [Compound 5j, 6-Amino-4-(3-chlorophenyl)-3-methyl-2,4-dihydropyrano[2,3-c]pyrazole-5-carbonitrile], the “HepG2 LD50” value with HepG2 cells is recorded as > 100 µM. In addition, the EC50 in the data set on Nrf2 (Arec32, 24 h) is 5.38 ± 0.5 µM. In addition, the IC50 in the data set on primary rat glial cells was found to be 24 ± 2.58 µM.

As for `Cc1[nH]nc2c1C(c1cccc([N+](=O)[O-])c1)C(C#N)=C(N)O2` (centres unmarked) [Compound 5o, 6-Amino-3-methyl-4-(3-nitrophenyl)-2,4-dihydropyrano[2,3-c]pyrazole-5-carbonitrile], the “HepG2 LD50” value in the data set on HepG2 cells is recorded as > 100 µM. The EC50 in the data set with Nrf2 (Arec32, 24 h) came to 18.9 ± 2.9 µM. Also, the IC50 in the data set with primary rat glial cells stood at 30.8 ± 4.99 µM.

By IC50 is commonly meant the point on the concentration scale where inhibition reaches its midpoint.
